Data on 26 molecules can be found in patent publication US20190284192A1, “NITROGENOUS MACROCYCLIC COMPOUND, PREPARATION METHOD THEREFOR, PHARMACEUTICAL COMPOSITION AND APPLICATION THEREOF” (LUOXIN PHARMACEUTICAL (SHANGHAI) CO., LTD., priority 2016, published 2019).

Counter-ions that a name gives are not always drawn.

For one experiment, the system named is MV-4-11 cells. Put plainly: Inhibitory effect on MV-4-11 cells (CellTiter-Glo). The experiment is classed as cell-based. To be noted: Homo sapiens, MV4-11; 72 hours, CellTiter-Glo; read-out: MV-4-11. Background: ATP-based viability assays read luminescence as a measure of living cells.
The next experiment has as its target T1, BRD4 (BD1) (Homo sapiens, UniProt O60885).
T1 construct: Each member comprises two tandem bromodomains (BD1 and BD2) for recognizing the acetylated lysine residues
Description: BRD4 (BD1) bromodomain binding, HTRF. To be noted: 2 h incubation at r.t. In general terms: Time-resolved FRET reads energy transfer from a long-lived donor to a nearby acceptor.

For the next experiment, the target named is T2, BRD4 (BD2) (Homo sapiens, UniProt O60885).
T2 construct: Each member comprises two tandem bromodomains (BD1 and BD2) for recognizing the acetylated lysine residues
Description: BRD4 (BD2) bromodomain binding, HTRF. To be noted: 2 h incubation at r.t.

Description for MV-4-11 cells: The 1st Day: Seed the Cells on the Plate
1. The cells were verified that they were in good conditions by observation under microscope;
2. The cells were transferred to a 15 mL centrifuge tube, after centrifuged at 1000 rpm for 5 min, the supernatant was discarded;
3. The complete medium (IMDM+10% FBS) was added, then blown and patted into single cell suspension, counted by Vi-cell cytometer, the cell suspension was adjusted to desired cell density by the complete medium.
4. The cells were inoculated into a 96 well plate, the cell number was 15000/well at 100 μL per well, 100 μL complete medium was added into the black control.
5. 37° C., 5% CO2 culture overnight.
The 2nd Day: Addition of the Drugs
1. 1000× Compound Plate Preparation
1.1. The test compound was prepared into 10 mM working solution by using DMSO. Then the STS was prepared into 2 mM working solution by using DMSO.
1.2. In the round bottom 96 wells plate, the column 2 of row A to H was added into 60 μL 10 mM test compound (or STS) working solution, columns 3-11 were added into 40 μL DMSO, 20 μL drug solution was pipetted from the column 2 to the column 3, blown and patted for a homogeneous mixture; then 20 μL solution was pipetted from the column 3 to the column 4, blown and patted for a homogeneous mixture, sequently, the drug was diluted by 3 times, 10 concentrations in total. The columns 1 and 12 were supplemented with 40 μL of DMSO.
2. Intermediate plate areparation
A sterile V-bottom 96 deep well plate was used and in each well, 495 μL FBS-free PRMI 1640 medium was added, then 5 μL of the diluted compound (or DMSO) in the 1000× compound plate was pipetted into corresponding position of the V-bottom 96 well plate, blown and patted evenly.
3.1. The cell plate was taken out from the incubator and was observed under microscope. The diluted compound or DMSO in the intermediate plate was added into the cell plate, 11 μL each well.
3.2. The cell was continued to be cultured at 37° C., 5% CO2 for 72 hours.
The 5th Day: CellTiter-Glo Detection of the Cell Activity
1. The CellTiter-Glo buffer and the reaction substrate were taken out from the refrigerator, after balanced to r.t., the buffer was poured into a brown bottle containing the substrate, the bottle was upside down to have the substrate powder sufficientaly dissolved.
2. The cell was observed under microscope; the cell plate was balanced to r.t.
3. The prepared CellTiter-Glo was added into the 96 well plate, at 100 μL/well.
4. The cell plate was placed on a shaker for 10 min, followed by standing at r.t. for 10 min.
5. A white seal film was attached to the bottom of the well plate, and the chemiluminescence signal of each well was detected by the Enspire microplate detector.
6. XLfit was used for data processing. Inhibition rate %=(d−c)/(d−b)×100, while d is the signal value of the DMSO treated group, c is the signal value of the compound treated group, b is signal value of the blank control that only containing medium and DMSO without cells. The data was fitted using the f(x)205[fit=(A+((B−A)/(1+((C/x)^∧D))))] equation in the XLfit software.

As to `CC[C@@H]1N=C(c2ccc(Cl)cc2)c2ccc(CS(=O)(=O)CC)cc2-c2cn(C)c(=O)cc21` [Compound 4047, (S)-5-ethyl-10-((ethylsulfonyl)methyl)-7-(4-chlorophenyl)-2-methyl-2,5-dihydro-3H-benzo[c]pyrido[3,4-e]azepin-3-ketone], the IC50 in the experiment on MV-4-11 cells came out at 2 nM; at BRD4 (BD1), 0.4 nM; at BRD4 (BD2), 1 nM.

`CNS(=O)(=O)Cc1ccc2c(c1)-c1cn(C)c(=O)cc1[C@H](C)N=C2c1ccc(F)c(OC)c1` [Compound 4103, (S)-1-(7-(4-fluoro-3-methoxylphenyl)-2,5-dimethyl-3-oxo-3,5-dihydro-2H-benzo[c]pyrido[3,4-e]azepin-10-yl)-N-methylmethane sulfamide]: the IC50 was 2 nM on BRD4 (BD1) and 0.6 nM on BRD4 (BD2).

As to `CCNC(=O)C[C@@H]1N=C(c2ccc(F)cc2)c2cc(OC)c(F)cc2-c2cn(C)c(=O)cc21` [Compound 4036, (S)—N-ethyl-2-(10-fluoro-7-(4-flurophenyl)-9-methoxyl-2-methyl-3-oxo-3,5-dihydro-2H-benzo[c]pyrido[3,4-e]azepin-5-yl)acetamide], the IC50 on BRD4 (BD1) came to 5 nM; on BRD4 (BD2) it was 2 nM.

For the molecule `CC(C)NC(=O)C[C@@H]1N=C(c2ccc(Cl)cc2)c2ccccc2-c2cn(C)c(=O)cc21` [Compound 4032, (S)-2-(7-(4-chlorophenyl)-2-methyl-3-oxo-3,5-dihydro-2H-benzo[c]pyrido[3,4-e]azepin-5-yl)-N-isopropylacetamide], the IC50 with MV-4-11 cells was 6 nM; on BRD4 (BD1), 3 nM; at BRD4 (BD2), 2 nM.

Turning to `COc1ccc2c(c1)-c1cn(C)c(=O)cc1CN=C2c1ccc(F)cc1` [Compound 4019, 7-(4-fluorophenyl)-10-methoxy-2-methyl-2,5-dihydro-3H-benzo[c]pyrido[3,4-e]azepin-3-one], the IC50 in the experiment on MV-4-11 cells amounted to 144 nM; on BRD4 (BD1) it was 10 nM; at BRD4 (BD2) it was 37 nM.

In the case of `CCS(=O)(=O)Cc1ccc2c(c1)-c1cn(C)c(=O)cc1[C@H](C(C)C)N=C2c1ccc(F)cc1` [Compound 4060, (S)-10-((ethylsulfonyl)methyl)-7-(4-flurophenyl)-5-isopropyl-2-methyl-2,5-dihydro-3H-benzo[c]pyrido[3,4-e]azepin-3-ketone], the IC50 in the experiment with MV-4-11 cells was determined as 19 nM; on BRD4 (BD1), 2 nM; at BRD4 (BD2) it was 1 nM.

Consider `CCS(=O)(=O)Cc1ccc2c(c1)-c1cn(C)c(=O)cc1[C@H](C)N=C2c1ccc(Cl)cc1` [Compound 4037, (S)-10-((ethylsulfonyl)methyl)-7-(4-chlorophenyl)-2,5-dimethyl-2,5-dihydro-3H-benzo[c]pyrido[3,4-e]azepin-3-ketone], for which the IC50 with MV-4-11 cells is 6 nM; at BRD4 (BD1), 2 nM; at BRD4 (BD2), 1 nM.

Consider `CC(C)S(=O)(=O)Cc1ccc2c(c1)-c1cn(C)c(=O)cc1[C@H](C)N=C2c1ccc(F)cc1` [Compound 4044, (S)-10-((isopropylsulfone)methyl)-7-(4-flurophenyl)-2,5-dimethyl-2,5-dihydro-3H-benzo[c]pyrido[3,4-e]azepin 3-ketone], for which the IC50 with MV-4-11 cells came out at 7 nM; on BRD4 (BD1), 1 nM; on BRD4 (BD2), 1 nM.

For the molecule `C[C@@H]1N=C(c2ccc(F)cc2)c2ccc(CS(C)(=O)=O)cc2-c2cn(C)c(=O)cc21` [Compound 4059, (S)-7-(4-flurophenyl)-2,5-dimethyl-10-((dimethylfulfone)methyl)-2,5-dihydro-3H-benzo[c]pyrido[3,4-e]azepin-3-ketone], the results for the IC50 with MV-4-11 cells, on BRD4 (BD1) and at BRD4 (BD2) were 7 nM, 2 nM and 1 nM, respectively.

With `CCS(=O)(=O)Cc1ccc2c(c1)-c1cn(C)c(=O)cc1[C@H](C)N=C2c1ccc(F)cc1F` [Compound 4046], the IC50 with MV-4-11 cells amounted to 4 nM; at BRD4 (BD1), 1 nM; at BRD4 (BD2) it was 1 nM.

Regarding `CCS(=O)(=O)Cc1ccc2c(c1)-c1cn(C)c(=O)cc1[C@H](C)N=C2c1ccc(C#N)cc1` [Compound 4075], the IC50 in the experiment on MV-4-11 cells was found to be 10 nM; on BRD4 (BD1), 4 nM; at BRD4 (BD2), 2 nM.

Regarding `CCS(=O)(=O)Cc1cc2c(cc1OC)C(c1ccc(F)cc1)=N[C@@H](C)c1cc(=O)n(C)cc1-2` [Compound 4057, (S)-10-((ethylsulfonyl)methyl)-7-(4-flurophenyl)-9-methoxyl-2,5-dimethyl-2,5-dihydro-3H-benzo[c]pyrido[3,4-e]azepin-3-ketone], the IC50 in the experiment with MV-4-11 cells turned out to be 4 nM; on BRD4 (BD1) it was 2 nM; on BRD4 (BD2), 1 nM.

On to `CNS(=O)(=O)Nc1ccc2c(c1)-c1cn(C)c(=O)cc1[C@H](C)N=C2c1ccc(F)cc1` [Compound 4050, (S)—N-(7-(4-flurophenyl)-2,5-dimethyl-3-oxo-3,5-dihydro-2H-benzo[c]pyrido[3,4-e]azepin-10-yl)methylamine sulfonamide], for which the IC50 was found to be 17 nM on BRD4 (BD1) and 9 nM at BRD4 (BD2).

Regarding `CCS(=O)(=O)Cc1ccc2c(c1)-c1cn(C)c(=O)cc1[C@H](C)N=C2c1ccc(F)cc1Cl` [Compound 4101, (S)-7-(2-chloro-4-flurophenyl)-10-((ethylsulfonyl)methyl)-2,5-dimethyl-2,5-dihydro-3H-benzo[c]pyrido[3,4-e]azepin-3-ketone], the IC50 at BRD4 (BD1) came out at 3 nM; at BRD4 (BD2), 0.7 nM.

`CCNC(=O)C[C@@H]1N=C(c2ccc(F)cc2)c2c(ccc(OC)c2F)-c2cn(C)c(=O)cc21` [Compound 4035, (S)—N-ethyl-2-(8-fluoro-7-(4-flurophenyl)-9-methoxyl-2-methyl-3-oxo-3,5-dihydro-2H-benzo[c]pyrido[3,4-e]azepin-5-yl)acetamide]: the IC50 was determined as 3 nM at BRD4 (BD1) and 1 nM at BRD4 (BD2).

Consider `CCS(=O)(=O)Cc1ccc2c(c1)-c1cn(C)c(=O)cc1[C@H](C)N=C2c1ccc(OC)c(F)c1` [Compound 4104, (S)-10-((ethylsulfonyl)methyl)-7-(3-fluoro-4-methoxylphenyl)-2,5-dimethyl-2,5-dihydro-3H-benzo[c]pyrido[3,4-e]azepin-3-ketone], for which the IC50 was 2 nM at BRD4 (BD1) and 1 nM at BRD4 (BD2).

As for `CCS(=O)(=O)Cc1ccc2c(c1)-c1nn(C)c(=O)cc1C(C)N=C2c1ccc(F)cc1Cl` (centres unmarked) [Compound 4097, 7-(2-chloro-4-flurophenyl)-10-((ethylsulfonyl)methyl)-2,5-dimethyl-2,5-dihydro-3H-benzo[c]pyridazino[3,4-e]azepin-3-ketone], the IC50 came out at 20 nM on BRD4 (BD1) and 3 nM on BRD4 (BD2).

For `CCS(=O)(=O)Cc1ccc2c(c1)C(c1ccc(F)cc1)=NCc1cc(=O)n(C)cc1-2` [Compound 4039, 9-((ethylsulfonyl)methyl)-7-(4-flurophenyl)-2-methyl-2,5-dihydro-3H-benzo[c]pyrido[3,4-e]azepin-3-ketone], the IC50 on BRD4 (BD1) is 163 nM; at BRD4 (BD2), 204 nM.

`Cn1cc2c(cc1=O)CN=C(c1ccc(F)cc1Cl)c1ccc(CS(C)(=O)=O)cc1-2` [Compound 4098, 7-(2-chloro-4-flurophenyl)-2-methyl-10-((dimethylfulfone)methyl)-2,5-dihydro-3H-benzo[c]pyrido[3,4-e]azepin-3-ketone]: the figures for the IC50 on BRD4 (BD1) and at BRD4 (BD2) were 22 nM and 3 nM, respectively.

With `CNS(=O)(=O)Cc1ccc2c(c1)-c1cn(C)c(=O)cc1N(C)N=C2c1ccc(F)cc1` [Compound 4099, 1-(7-(4-flurophenyl)-2,5-dimethyl-3-oxo-3,5-dihydro-2H-benzo[e]pyrido[4,3-c][1,2]diazepin-10-yl)-N-methylmethane sulfamide], the IC50 at BRD4 (BD1) amounted to 2 nM; at BRD4 (BD2) it was 0.9 nM.

On to `CCS(=O)(=O)Cc1ccc2c(c1)-c1cn(C)c(=O)cc1CN=C2c1cc(OC)c(F)cc1Cl` [Compound 4096, 7-(2-chloro-4-fluoro-5-methoxylphenyl)-10-((ethylsulfonyl)methyl)-2-methyl-2,5-dihydro-3H-benzo[c]pyrido[3,4-e]azepin-3-ketone], for which the IC50 at BRD4 (BD1) is 44 nM; on BRD4 (BD2), 4 nM.

As for `Cn1cc2c(cc1=O)CNC(c1ccc(F)cc1)c1ccc(CS(C)(=O)=O)cc1-2` (centres unmarked) [Compound 4008, 7-(4-fluorophenyl)-2-methyl-10-(methylsulfonemethyl)-6,7-dihydro-2H-benzo[c]pyrido[3,4-e]azepin-3(5H)-ketone formate], the IC50 on BRD4 (BD1) came out at 113 nM; at BRD4 (BD2), 28 nM.

Take `CCS(=O)(=O)Cc1ccc2c(c1)-c1cn(C)c(=O)cc1C1(CC1)N=C2c1ccc(F)cc1` [Compound 4041, 10-((ethylsulfonyl)methyl)-7-(4-flurophenyl)-2-methyl spiro[benzo[c]pyrido[3,4-e]azepin-5,1′-cyclopropane]-3(2H)-ketone]: the IC50 at BRD4 (BD1) and on BRD4 (BD2) was 12 nM in each case.

For `CCS(=O)(=O)Cc1ccc2c(c1)-c1cn(C)c(=O)cc1[C@H](C)N=C2c1ccncc1` [Compound 4105, (S)-10-((ethylsulfonyl)methyl)-2,5-dimethyl-7-(pyridin-4-yl)-2,5-dihydro-3H-benzo[c]pyrido[3,4-e]azepin-3-ketone], the results for the IC50 at BRD4 (BD1) and on BRD4 (BD2) were 2 nM and 1 nM, respectively.

Regarding `CCS(=O)(=O)Cc1ccc2c(c1)-c1cn(C)c(=O)cc1[C@H](C)N=C2c1cc(OC)c(F)cc1Cl` [Compound 4102, (S)-7-(2-chloro-4-fluoro-5-methoxylphenyl)-10-((ethylsulfonyl)methyl)-2,5-dimethyl-2,5-dihydro-3H-benzo[c]pyrido[3,4-e]azepin-3-ketone], the IC50 at BRD4 (BD1) worked out at 5 nM; at BRD4 (BD2) it was 0.8 nM.

Consider `Cn1cc2c(c1C#N)CCN(c1ccc(F)cc1)c1ccc(CS(C)(=O)=O)cc1-2` [Compound 4004, 6-(4-Fluorophenyl)-2-methyl-9-(methylsulfonylmethyl)-2,4,5,6-tetrahydrobenzo[b]pyrrolo[3,4-d]azepin-3-nitrile], for which the IC50 was 109 nM at BRD4 (BD1) and 184 nM at BRD4 (BD2).
